Laboratory results taken from patent publication US11497757B2, “Silanol based therapeutic payloads” (BlinkBio, Inc., priority 2016, dated 2022).

What was measured:
KB cells = assay: CellTiter-Glo cell viability, washout protocol; format: cell-based; conditions: for EC50: washout protocol: 2 h incubation, wash, additional 70 h, siloxane based conjugates; for % Kill (48 h): washout protocol
Method: Washout protocol: KB cells in culture were seeded in white clear bottom 96-well tissue culture plate at a density of 5,000 cells per well in a folate free RPMI media with 10% FBS a day prior to compound addition. Cells were counted visually with a hemocytometer and diluted accordingly to obtain the desired density. Cells were allowed to incubate for 24 hours in a humidified CO2 atmosphere in an incubator at 37° C. The spent media was aspirated and replenished with 100 μL of fresh media containing a 3-fold serial dilution of compound with concentrations ranging from 0.3 to 2000 nM and with a final DMSO concentration of 0.1%. Blank wells without compound were also treated with media containing 0.1% DMSO. […] […] At the end of 70 h, the spent media was removed and cells were washed once with fresh media and then suspended 100 μL of PBS. 100 μL of constituted Cell titer-glo reagent was added to each well and luminescence was recorded with a VICTOR plate reader according to manufacturers' protocol.

[1] = test system: Folate receptor alpha expressing KB cells; assay: Confocal imaging study demonstrating endocytosis and Si-O cleavage; format: cell-based; conditions: 50 nM
Method: Example 51 as shown above contains a folate receptor targeting ligand, a spacer moiety, a siloxane core and two different fluorescent dyes (BODIPY and rhodamine) positioned on either side of the siloxane core. Folate receptor alpha expressing KB cells were grown in folic acid free media. The cells were incubated for 30 minutes on ice with 50 nM of Example 51, washed with fresh culture medium and then incubated in media at 37° C. for the desired length of time. The fate of both dyes was simultaneously monitored using confocal microscopy using Zeiss LSM 780 laser scanning microscope.

CC[C@]1(O)C[C@@H]2CN(CCc3c([nH]c4ccccc34)[C@@](C(=O)OC)(c3cc4c(cc3OC)N(C)[C@H]3[C@@](O)(C(=O)NCCC[Si](C)(C)O[Si](C)(C)CSc5ncc(Cn6cc(C[C@H](NC(=O)[C@H](CC(=O)O)NC(=O)[C@H](CC(=O)O)NC(=O)[C@H](CCCNC(=N)N)NC(=O)[C@H](CC(=O)O)NC(=O)CC[C@H](NC(=O)c7ccc(NCc8cnc9nc(N)[nH]c(=O)c9n8)cc7)C(=O)O)C(=O)O)nn6)cn5)[C@H](O)[C@]5(CC)C=CCN6CC[C@]43[C@@H]65)C2)C1 [Example 28]
EC50 (KB cells): ~156 nM
% Kill (48 h) (KB cells): 86%

CC[C@H](C)[C@@H]([C@@H](CC(=O)N1CCC[C@H]1[C@H](OC)[C@@H](C)C(=O)N[C@@H](Cc1ccccc1)C(=O)O)OC)N(C)C(=O)[C@@H](NC(=O)[C@H](C(C)C)N(C)C(=O)CCC[Si](C)(C)O[Si](C)(C)c1cccc(CC(=O)NCCOCCOCCOCCOCCOCCn2cc(COCC(COCc3cn(CCOCCOCCOCCOCCOCCNC(=O)Cc4cccc([Si](C)(C)O[Si](C)(C)CCCC(=O)N(C)[C@H](C(=O)N[C@H](C(=O)N(C)[C@@H]([C@@H](C)CC)[C@@H](CC(=O)N5CCC[C@H]5[C@H](OC)[C@@H](C)C(=O)N[C@@H](Cc5ccccc5)C(=O)O)OC)C(C)C)C(C)C)c4)nn3)(COCc3cn(CCOCCOCCOCCOCCOCCNC(=O)Cc4cccc([Si](C)(C)O[Si](C)(C)CCCC(=O)N(C)[C@H](C(=O)N[C@H](C(=O)N(C)[C@@H]([C@@H](C)CC)[C@@H](CC(=O)N5CCC[C@H]5[C@H](OC)[C@@H](C)C(=O)N[C@@H](Cc5ccccc5)C(=O)O)OC)C(C)C)C(C)C)c4)nn3)NC(=O)CCOCCOCCOCCOCCOCCOCCNC(=O)CC[C@H](NC(=O)c3ccc(NCc4cnc5nc(N)[nH]c(=O)c5n4)cc3)C(=O)O)nn2)c1)C(C)C [Example 35, Folate-PEG-Adaptor-PhenylSiLinker-TripleAuristatin]
EC50 (KB cells): ~8 nM

CCN(CC)c1ccc2c(-c3ccc(S(=O)(=O)NCc4cnc(SC[Si](C)(C)O[Si](C)(C)CCCN5C(=O)CC(SC[C@H](NC(=O)[C@H](CNC(=O)CCC6=[N+]7C(=Cc8c(C)cc(C)n8[B-]7(F)F)C=C6)NC(=O)[C@H](CC(=O)O)NC(=O)CC[C@H](NC(=O)c6ccc(NCc7cnc8nc(N)[nH]c(=O)c8n7)cc6)C(=O)O)C(=O)O)C5=O)nc4)cc3S(=O)(=O)[O-])c3ccc(=[N+](CC)CC)cc-3oc2c1 (some centres unmarked) [Example 51]
Folate receptor binding on cell surface (colocalization of dyes) ([1]; t=0): bound to the folate receptor on the cell surface
Cleavage of the siloxane core (color separation of the two dyes) ([1]; t=30 min, 37° C.): cleavage of the siloxane core was observed
Endocytosis of intact conjugate into the cell ([1]; t=30 min, 37° C.): endocytosis of intact Example 51 into the cell was observed

CC[C@]1(O)C[C@@H]2C[N@@](CCc3c([nH]c4ccccc34)[C@@](C(=O)OC)(c3cc4c(cc3OC)N(C)[C@H]3[C@@](O)(C(=O)NCCC[Si](C)(C)O[Si](C)(C)CSc5ncc(Cn6cc(COCCOCCOCCOCCOCCOCCNC(=O)CC[C@H](NC(=O)c7ccc(NCc8cnc9nc(N)[nH]c(=O)c9n8)cc7)C(=O)O)nn6)cn5)[C@H](O)[C@]5(CC)C=CCN6CC[C@]43[C@@H]65)C2)C1 [Example 24]
EC50 (KB cells): ~265 nM
% Kill (48 h) (KB cells): 84%
